From patent publication US20080275110A1, “Sesamin/Episesamin Compositions” (priority 2004, published 2008)

Tests used:
[1] = Oral absorption of episesamin and its transfer into blood circulation (I), LC-MS/MS of plasma; design: species or system SD (IGS) male rats; details: male, SD (IGS), rat, in vivo, 10 mg/kg
Procedure: (§1) SD (IGS) male rats (6-wk old) were purchased from CHARLES RIVER JAPAN INC. and habituated in the test environment for a week; the animals that were seen to grow normally were subjected to the test. The rats fasted overnight were divided into six groups each consisting of 5 heads; the high purity sesamin and episesamin obtained in Example 1 were incorporated at varying weight ratios of 6:4, 5:5, 4:6, 3:7, 1:9 and 0:10 to prepare sesamin/episesamin mixtures, which were dissolved in olive oil at a dose of 10 mg/kg and administered perorally to the rats via a feeding tube. […] After adding an internal standard, solid-phase extraction was performed with Oassis HLB and the liquid extract was concentrated under vacuum, suspended in methanol, passed through a filter, and subjected to LC-MS/MS for quantification of sesamin and episesamin. The quantity of sesamin or episesamin was determined from the ratio between the peak area of sesamin or episesamin and that of UDESMIN (Funakoshi Co, Ltd.) used as the internal standard. […]
The concentration of episesamin in blood peaked in about 6 hours after the administration, then decreased gradually until it became almost undetectable in 24 hours. From the blood concentration curve for 0-24 hours, the area under the curve (AUC) was determined as an index of absorbed quantity. […]

[2] = Oral absorption of episesamin and its transfer into blood circulation (II), lowered sesamin ratios; design: species or system rats; details: male, SD (IGS), rat, in vivo, 10 mg/kg
Procedure: as §1
With a view to prescribing effective mixing ratios of sesamin, the action of further lowered ratios of sesamin was evaluated in accordance with the method of Example 2. […]

[3] = test system: Deoxycorticosterone Acetate-Salt (DOCA-Salt) Induced Hypertension Model Rats; assay: Blood pressure lowering action in DOCA-salt induced hypertension model rats (tail-cuff SBP); format: in vivo, SD male rats; details: 100 mg/kg single oral; for changes in blood pressure for 24 hours after the single administration: Example 4, FIG. 3, n=5-7; for changes in blood pressure 8 hours after the administration: Example 4, FIG. 4
Procedure: SD male rats (6-wk old) (purchased from Japan SLC, Inc.) were subjected to surgery for removing the right kidney under anesthetization with Nembutal. After recuperation for a week, the rats were administered subcutaneously with DOCA-salt twice a week at a dose of 15 mg/kg, and allowed to drink 1% saline. The systolic blood pressure (SBP) of each animal was measured by a tail-cuff method with a non-invasive automatic blood pressure measuring apparatus (BP-98A, Softron, Tokyo). At 5 weeks after the start of treatment with DOCA-salt, blood pressure was measured and the animals in which adequate elevation of blood pressure was verified were used in the following experiment. Rats fasted for 8 hours were divided into a control group and three test groups. The control group was administered olive oil only. For the test groups, the high purity sesamin and episesamin obtained in Example 1 were incorporated at varying weight ratios of 10:0, 5:5 and 0:10 to prepare sesamin/episesamin mixtures, which were suspended in olive oil at a dose of 100 mg/kg. Single oral administration of olive oil or the suspension was effected via a feeding tube. Both before the administration and 2, 4, 6, 8, 10, 12 and 24 hours after the administration, SBP measurement was conducted. Diet was applied after the blood pressure measurement at 12 hours. Testing was conducted at 1-wk intervals and the same head was subjected to no more than three measurements.
Sesamin and episesamin were incorporated at varying weight ratios of 5:5, 3:7 and 1:9 to prepare sesamin/episesamin mixtures, which were dissolved in olive oil at a dose of 50 mg/kg. Single oral administration of the solution was effected via a feeding tube, and for blood pressure measurement was conducted.

β-oxidation genes = assay: Effects on the expression of β-oxidation genes, quantitative RT-PCR; format: in vivo, Wistar male rats; details: Example 6, FIGS. 6A/6B; 200 mg/kg peroral three times at 24-hr intervals, 4 hours after final administration
Procedure: Wistar male rats (6-wk old) were purchased from CLEA Japan, Inc. and habituated in the test environment for a week; the animals that were seen to grow normally were subjected to the test. The rats were divided into six groups each consisting of 5 heads. The control group was administered with olive oil only. For the test groups, the high purity sesamin and episesamin obtained in Example 1 were incorporated at varying weight ratios of 10:0, 5:5, 3:7, 1:9 and 0:10 to prepare sesamin/episesamin mixtures, which were suspended in olive oil at a dose of 200 mg/kg. The rats were administered perorally with olive oil or the suspension three times at 24-hr intervals. Four hours after the final administration, the kidney was removed from each rat under anesthetization with Nembutal; after extracting RNA, effects on the expression of 10 β-oxidation genes were investigated by quantitative RT-PCR using TaqMan chemistry (Heid C A, Stevens J, Livak K J, Williams P M, Real time quantitative PCR, Genome Res. 1996 6(10):986-94).
In contrast, each of the groups administered with the sesamin/episesamin mixture experienced more elevated gene expression than the group administered with episesamin alone. The effect of the mixing ratio was somewhat variable from one gene to another but no significant difference was found among the three groups administered with the sesamin/episesamin mixture.

[4] = test system: β-oxidation enzymes in the liver; details: rats, separately administered orally; cited from earlier work
fatty acid synthases = details: rats, separately administered orally; cited from earlier work
[5] = rat, in vivo, po; cited from earlier work

Row | Structure (SMILES) | percent absorption of episesamin (AUC 0-24 hours divided by relative amount of episesamin administered) [1] | percent absorption of episesamin [2] | changes in blood pressure for 24 hours after the single administration [3] | changes in blood pressure 8 hours after the administration [3] | expression of β-oxidation genes (β-oxidation genes) | gene expression and enzymatic activity of β-oxidation enzymes in the liver compared with sesamin [4] | activity for inhibiting fatty acid synthases, sesamin versus episesamin (fatty acid synthases) | transfer into organs relative to sesamin [5]
1 | c1cc2c(cc1[C@H]1OC[C@H]3[C@@H]1CO[C@H]3c1ccc3c(c1)OCO3)OCO2 [episesamin] | 72.5% | 59.7% | No significant changes | −6 mmHg | many genes were expressed in increased amounts | markedly increased | no difference between sesamin and episesamin | at least twice as much as that of sesamin
2 | c1cc2c(cc1[C@H]1OC[C@H]3[C@@H]1CO[C@@H]3c1ccc3c(c1)OCO3)OCO2 [sesamin] |  |  | No significant changes | −13 mmHg | hardly rose |  | no difference between sesamin and episesamin | 
